From patent US11464720B2, “TRPA1 activity inhibitor” (MANDOM CORPORATION, priority 2017, dated 2022)

Experiments:
[1] = target: T1, human TRPA1 (Homo sapiens, UniProt O75762); test: Test Example 1: TRPA1 activity-inhibition ratio, intracellular calcium (Fura 2-AM) in TRPA1-expressing HEK293 cells stimulated with menthol; assay type: cell-based; conditions: mixed with agonist 1 mM menthol
T1 construct: expressed in transfected cells; host or cells: HEK293 cells, transient lipofection of pcDNA3.1(+) human TRPA1-expression vector
T1 sequence (O75762 whole entry): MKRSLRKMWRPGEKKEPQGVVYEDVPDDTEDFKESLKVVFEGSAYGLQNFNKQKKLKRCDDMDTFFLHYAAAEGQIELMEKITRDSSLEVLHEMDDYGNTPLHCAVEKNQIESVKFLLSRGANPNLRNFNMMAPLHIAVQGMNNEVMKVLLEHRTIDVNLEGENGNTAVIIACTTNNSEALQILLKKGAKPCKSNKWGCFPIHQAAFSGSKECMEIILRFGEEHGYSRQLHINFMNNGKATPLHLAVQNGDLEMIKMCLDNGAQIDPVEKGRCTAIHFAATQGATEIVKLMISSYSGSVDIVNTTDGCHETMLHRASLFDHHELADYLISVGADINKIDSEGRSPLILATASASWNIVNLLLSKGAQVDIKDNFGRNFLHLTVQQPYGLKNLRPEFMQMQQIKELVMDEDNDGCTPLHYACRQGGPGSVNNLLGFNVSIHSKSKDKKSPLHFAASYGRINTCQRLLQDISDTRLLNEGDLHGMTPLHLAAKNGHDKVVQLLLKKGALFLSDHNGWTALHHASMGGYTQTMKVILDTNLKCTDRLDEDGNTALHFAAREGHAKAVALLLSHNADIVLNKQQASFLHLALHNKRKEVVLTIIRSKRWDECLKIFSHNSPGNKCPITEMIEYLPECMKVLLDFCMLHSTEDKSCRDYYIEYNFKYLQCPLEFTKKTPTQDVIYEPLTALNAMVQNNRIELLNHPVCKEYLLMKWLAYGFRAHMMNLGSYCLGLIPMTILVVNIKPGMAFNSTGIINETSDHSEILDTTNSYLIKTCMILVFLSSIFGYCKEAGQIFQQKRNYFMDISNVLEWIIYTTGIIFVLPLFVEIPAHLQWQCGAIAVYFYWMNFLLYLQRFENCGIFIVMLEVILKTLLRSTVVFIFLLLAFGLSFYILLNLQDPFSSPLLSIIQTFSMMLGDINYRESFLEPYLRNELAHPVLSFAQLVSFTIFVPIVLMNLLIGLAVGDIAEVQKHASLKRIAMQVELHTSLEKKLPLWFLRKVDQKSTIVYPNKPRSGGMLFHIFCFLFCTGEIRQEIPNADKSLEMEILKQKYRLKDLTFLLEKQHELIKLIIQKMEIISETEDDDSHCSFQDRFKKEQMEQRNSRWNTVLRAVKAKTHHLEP
Description: A cDNA encoding human TRPA1 [a polynucleotide of position 63 to position 3888 of the nucleotide sequence shown in SEQ ID NO: 1 (GenBank Accession No.: NM_007332)] was inserted into a cloning site of a vector for mammalian cells [manufactured by Invitrogen under the trade name of pcDNA3.1(+)], to obtain a human TRPA1-expression vector. One microgram of the resulting human TRPA1-expression vector was mixed with 6 μL of a gene transfer reagent [manufactured by Invitrogen under the trade name of PLUS Reagent, Catalogue No.: 11514-015], to obtain a mixture I. Additionally, 4 μL of a cationic lipid for gene transfer [manufactured by Invitrogen under the trade name of Lipofectamine (registered trademark), Catalogue No.: 18324-012] was mixed with 200 μL of a medium for reducing serum consumption [Manufactured by Invitrogen under the trade name of Opti-MEM (registered trademark) I Reduced Serum Medium (catalogue No.: 11058021)], to obtain a mixture II.
Furthermore, 5×10^5 cells of HEK293 cells were cultured in a 10% by mass fetal bovine serum (FBS)-containing Dulbecco's modified Eagle's medium (DMEM) on a dish having a diameter of 35 mm maintained at 37° C. under 5% by volume carbon dioxide atmosphere to 70% confluence.
By adding the mixture I and the mixture II to the resulting cell culture, the human TRPA1-expression vector was introduced into HEK293 cells, to obtain TRPA1-expressing cells. […]
Thereafter, intensity of fluorescence A based on the Fura 2-AM introduced into the TRPA1-expressing cell and bound to a calcium ion in the cells at an excitation wavelength of 340 nm in the chamber and intensity of fluorescence B based on the Fura 2-AM introduced into the TRAP1-expressing cell at an excitation wavelength of 380 nm were measured.
Using the measured intensity of fluorescence A and B, Δfluorescence intensity ratioagonist was calculated. The Δfluorescence intensity ratioagonist was calculated on the basis of the formula (IV): [Formula 1] ΔFluorescence intensity ratioagonist=(Fluorescence intensity340 nm in the presence of an agonist/Fluorescence intensity 380 nm in the presence of an agonist)−(Fluorescence intensity340 nm in the presence of a control/Fluorescence intensity380 nm in the presence of a control) (IV).
In the formula (IV), the intensity of fluorescence A was used as fluorescence intensity340 nm, and the intensity of fluorescence B was used as fluorescence intensity380 nm. […]

[2] = target: T2, human TRPM8 (Homo sapiens, UniProt Q7Z2W7); test: Test Example 2: enhancement degree of TRPM8 activity, intracellular calcium (Fura 2-AM) in TRPM8-expressing HEK293 cells; assay type: cell-based; conditions: test sample 0.5 mM, ratio to TRPM8 activity enhanced by agonist 1 mM menthol, FIG. 2
T2 construct: expressed in transfected cells; host or cells: HEK293 cells, transient lipofection of pcDNA3.1(+) human TRPM8-expression vector
T2 sequence (Q7Z2W7 whole entry): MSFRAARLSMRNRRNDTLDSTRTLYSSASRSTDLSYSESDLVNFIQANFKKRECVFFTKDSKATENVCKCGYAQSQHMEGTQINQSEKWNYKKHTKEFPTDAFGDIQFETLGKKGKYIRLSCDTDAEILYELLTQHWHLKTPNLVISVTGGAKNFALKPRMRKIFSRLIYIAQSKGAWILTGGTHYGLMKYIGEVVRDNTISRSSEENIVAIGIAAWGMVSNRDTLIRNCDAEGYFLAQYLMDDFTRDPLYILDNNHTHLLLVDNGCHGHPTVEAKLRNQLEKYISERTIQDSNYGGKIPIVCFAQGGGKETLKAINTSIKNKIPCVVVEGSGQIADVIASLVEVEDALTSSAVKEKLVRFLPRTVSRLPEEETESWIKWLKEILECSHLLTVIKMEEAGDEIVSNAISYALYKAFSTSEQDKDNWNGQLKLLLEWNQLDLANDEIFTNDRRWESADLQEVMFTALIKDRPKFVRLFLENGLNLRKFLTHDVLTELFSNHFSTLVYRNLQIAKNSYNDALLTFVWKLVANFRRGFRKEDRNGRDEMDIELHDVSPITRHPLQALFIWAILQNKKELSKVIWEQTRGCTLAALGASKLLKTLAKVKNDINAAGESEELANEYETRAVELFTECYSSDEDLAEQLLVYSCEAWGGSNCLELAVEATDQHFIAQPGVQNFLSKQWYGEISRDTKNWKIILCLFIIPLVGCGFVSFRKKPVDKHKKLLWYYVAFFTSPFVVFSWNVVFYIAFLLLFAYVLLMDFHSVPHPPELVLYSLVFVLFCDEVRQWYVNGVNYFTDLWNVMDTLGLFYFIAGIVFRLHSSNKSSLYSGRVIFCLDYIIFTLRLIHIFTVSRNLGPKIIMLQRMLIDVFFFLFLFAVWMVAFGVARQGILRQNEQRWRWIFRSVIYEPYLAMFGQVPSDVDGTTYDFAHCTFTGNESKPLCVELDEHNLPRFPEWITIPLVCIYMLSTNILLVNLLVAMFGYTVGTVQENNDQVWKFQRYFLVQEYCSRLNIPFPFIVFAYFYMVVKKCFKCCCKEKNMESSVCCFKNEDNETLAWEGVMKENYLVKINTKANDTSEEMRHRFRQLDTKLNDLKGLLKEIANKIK
Description: A cDNA encoding human TRPM8 [a polynucleotide of position 41 to position 3355 of the nucleotide sequence shown in SEQ ID NO: 3 (GenBank Accession No.: NM_024080)] was inserted into a cloning site of a vector for mammalian cells [manufactured by Invitrogen under the trade name of pcDNA3.1(+)], to obtain a human TRPM8-expression vector. One microgram of the resulting human TRPM8-expression vector was mixed with 6 μL of a gene transfer reagent [manufactured by Invitrogen under the trade name of PLUS Reagent, Catalogue No.: 11514-015], to obtain a mixture III. […]
Thereafter, intensity of fluorescence E based on the Fura 2-AM introduced into the TRPM8-expressing cell and bound to a calcium ion in the cells at an excitation wavelength of 340 nm and intensity of fluorescence F based on the Fura 2-AM introduced into the TRAM8-expressing cell at an excitation wavelength of 380 nm were measured in the chamber.
Using the measured intensity of fluorescence E and F, Δfluorescence intensity ratiotest sample was calculated on the basis of the formula (V). In the formula (V), the intensity of fluorescence E was used as fluorescence intensity340 nm, and the intensity of fluorescence F was used as fluorescence intensity380 nm. […]

[3] = test sample 1 mM in solvent A, FIG. 1

Structure (SMILES) | TRPA1 activity-inhibition ratio [1, 3] | Enhancement degree of TRPM8 activity [2] | TRPA1 activity-inhibition ratio ([1]; test sample 5 mM glycerol in solvent A, FIG. 1 lane 4)
CC1(C)C2CCC1(C)C(O)C2 (stereo not drawn) [Reference Example 1, Borneol] | about 96% | about 0.35 | –
CC1(C)C2CCC1(C)C(OCCO)C2 (stereo not drawn) [Example 1, 2-isobornyloxyethanol] | about 99% | about 0.69 | –
CC12CCC(CC1)C(C)(C)O2 [Reference Example 2, 1,8-cineole] | about 71% | – | –
OCC(O)CO [Comparative Example 1, Glycerol] | – | – | ≤ 0%
